Test results reported in patent US20110207751A1, “HETEROCYCLIC COMPOUNDS AND USES AS ANTICANCER AGENTS” (priority 2010, published 2011).
Where a name gives a salt, the structure may show the parent alone.

Columns and labels:
[1] = tested on: HT1080 cells (human connective tissue cancer cell line); assay: Inhibition of cell proliferation, xCelligence cell index; assay type: cell-based; conditions: HT-1080, 72 hr post compound treatment, read-out: calculated IC50
Text: (§1) The biological activity of compounds disclosed herein was monitored and profiled using the Real-Time Cell Electronic Sensing (RT-CES®) system from ACEA Biosciences, Inc. The RT-CES system utilizes cell-substrate impedance technology to monitor cellular behavior inside tissue culture wells in a microtiter plate format. The technology features in the integration of molecular and cell biology with microelectronics and is based on the electronic detection of biological assay process. […]
(§2) For measurement of cell-substrate or cell-electrode impedance using RT-CES technology, microelectrodes having appropriate geometries are fabricated onto the bottom surfaces of microtiter plate or similar device, facing into the wells. […] When there are changes to the biological status of the cells analogue electronic readout signals are measured automatically and in real time, and are converted to digital signals for processing and for analysis. In a RT-CES system, a cell index (arbitrary representation of change in impedance) is automatically derived and provided based on measured electrode impedance values. […]
(§3) To quantify cell status based on the measured cell-electrode impedance, a parameter termed Cell Index is derived. Cell Index is a quantitative measure of the status of the cells in an electrode-containing well. […]

[2] = tested on: H1838 cells (human non-small cell lung cancer cell line); assay: as above; assay type: cell-based; conditions: NCI-H1838, 72 hr post compound treatment, read-out: calculated IC50
Text: as §1, §2, §3

[3] = tested on: MKN45 human gastric-intestinal cancer xenograft; assay: In vivo antitumor efficacy, MKN45 xenograft; parameters: species or system BALB/c immunodeficient nude mice; conditions: for Tumor inhibition rate %: by tumor weight
Procedure: To evaluate the in vivo anticancer efficacy of COMPOUND O, MKN45 human gastric-intestinal cancer xenograft models in immunodeficient nude mice was tested. All the mouse models are maintained in the Pharmacology Lab of ACEA Bio (Hangzhou) CO., Ltd. The BALB/c immunodeficient nude mice were purchased from Shanghai SLAC Laboratory Animal, certification number: SCXKA (Shanghai) 2007-0005. The mouse weight was 19±1 g. Only female mice were used in this study. The numbers of animals tested were as follow: 7 for each dose group, 7 for positive control group and 7 for negative control group.
Test Control. For negative control, each mouse was administered orally with the solvent only having the same volume and same concentration as those used in COMPOUND O test, 120 mg/kg once every other day (qod) for 18 days. […]
Preparation an Administration of Test Compounds. COMPOUND O was dissolved in 25% phospholipid (S75) and 75% polyvinylpyrrolidone (PL-PVP) then further diluted to 8 mg/ml in 0.9% NaCl aqueous solution. Different dosages of COMPOUND O between 120 mg/kg qod (once every other day) and 160 mg/kg q3d (once every 3 days) were used in the study.
Preparation of tumor cells for transplantation and determination of compound efficacy. To prepare the tumor cells for MKN45 human gastric-intestinal cancer xenograft model, the fast grown tumors were first removed from the transplanted tumor mice, the tumor tissues were dissected to 1-2 mm^3 in dimension. These micro-tumors were then subcutaneously injected into the auxiliary region (right-side) of each mouse. After the inoculated tumors grew to a certain size (60-80 mm^3) in the nude mice, the mice were randomized into different dosing groups and subjected to compound treatment. Between 2-3 weeks after the first dosing, mice were sacrificed and the transplanted tumors were removed from experimental mice. Each removed solid tumor was weighed; the tumor inhibition rate in each dosage group was calculated according to the formula:
Tumor inhibition rate %=(average weight of tumor in the negative control group−average weight of tumor in the compound treated group)/average weight of tumor in the negative control group×100 (1)
All used materials including animal food, animal cage, supporting materials and apparatus contacted by animals, were high-pressure sterilized. Nude mice were maintained in laminar flow shelves under SPF condition. After tumor transplantation, mouse weight and tumor size in each compound dosage group were dynamically monitored and plotted. The tumor size was determined by measuring the major axis (a) and minor axis (b) of the tumor, and tumor volume was calculated according to the formula: […]

IC50 [1] | IC50 [2] | SMILES | TV inhibition rate % T/C ([3]; 120 mg/kg ig × 9 qod) | Tumor volume (mm^3) End ([3]; 120 mg/kg ig × 9 qod) | Tumor volume (mm^3) Start ([3]; 120 mg/kg ig × 9 qod) | Tumor weight (g) x ± SD ([3]; 120 mg/kg ig × 9 qod) | Tumor inhibition rate % ([3]; 120 mg/kg ig × 9 qod) | TV inhibition rate % T/C ([3]; 160 mg/kg ig × 6 q3d) | Tumor volume (mm^3) End ([3]; 160 mg/kg ig × 6 q3d) | Tumor volume (mm^3) Start ([3]; 160 mg/kg ig × 6 q3d) | Tumor weight (g) x ± SD ([3]; 160 mg/kg ig × 6 q3d) | Tumor inhibition rate % ([3]; 160 mg/kg ig × 6 q3d) | TV inhibition rate % T/C ([3]; 50 mg/kg ig × 6 q3d) | Tumor volume (mm^3) End ([3]; 50 mg/kg ig × 6 q3d) | Tumor volume (mm^3) Start ([3]; 50 mg/kg ig × 6 q3d) | Tumor weight (g) x ± SD ([3]; 50 mg/kg ig × 6 q3d) | Tumor inhibition rate % ([3]; 50 mg/kg ig × 6 q3d)
7.63 nM | 11.8 nM | CCc1ccc(Nc2nc(-c3c(C)nc4sccn34)cs2)cc1 [COMPOUND O, 2-(4-ethylphenyl)amino-4-(6-methylimidazo[2,1-b]thiazol-5-yl)-thiazole monohydrobromide] | 44.1% | 905 ± 403 mm^3 | 69.58 ± 11 mm^3 | 0.835 ± 0.41 g | 58.0% | 45.3% | 904 ± 347 mm^3 | 67.75 ± 25 mm^3 | 0.881 ± 0.467 g | 55.7% | – | – | – | – | –
– | – | COc1cc([C@@H]2c3cc4c(cc3[C@@H](O[C@@H]3O[C@@H]5CO[C@@H](C)O[C@H]5[C@H](O)[C@H]3O)[C@H]3COC(=O)[C@H]23)OCO4)cc(OC)c1O [Etoposide, reference compound] | – | – | – | – | – | – | – | – | – | – | 56.9% | 1164 ± 483 mm^3 | 69.46 ± 16 mm^3 | 1.024 ± 0.345 g | 48.4%
2.01 nM | 3.16 nM | CC[C@]1(O)C[C@H]2CN(CCc3c([nH]c4ccccc34)[C@@](C(=O)OC)(c3cc4c(cc3OC)N(C=O)[C@H]3[C@@](O)(C(=O)OC)[C@H](OC(C)=O)[C@]5(CC)C=CCN6CC[C@]43[C@@H]65)C2)C1 [vincristine] | – | – | – | – | – | – | – | – | – | – | – | – | – | – | –
